Laboratory results from ChEMBL document CHEMBL1201862, “PubChem BioAssay data set” (2004).
Active and inactive are the calls of the source.

How the values were obtained:
[1] = molecular target: T1, CAAX prenyl protease 2 (Saccharomyces cerevisiae S288c, UniProt Q03530); type: biochemical
T1 sequence (Q03530 whole entry): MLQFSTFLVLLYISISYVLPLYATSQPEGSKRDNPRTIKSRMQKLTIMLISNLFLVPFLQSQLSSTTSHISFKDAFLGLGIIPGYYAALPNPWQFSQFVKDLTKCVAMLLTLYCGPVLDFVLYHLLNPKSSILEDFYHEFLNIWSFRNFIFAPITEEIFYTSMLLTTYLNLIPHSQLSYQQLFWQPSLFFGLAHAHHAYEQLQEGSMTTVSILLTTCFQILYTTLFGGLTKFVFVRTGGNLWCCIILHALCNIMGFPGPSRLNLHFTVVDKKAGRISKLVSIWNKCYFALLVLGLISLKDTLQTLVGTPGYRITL

[2] = molecular target: Trypsin (Sus scrofa, UniProt P00761); assay: trypsin protease activity blockade – biochemical, quenched peptide fluorescence, cherry-pick, selectivity assay for Rce1 protease inhibitor project, dose response (AID 488789)
Chain of Trypsin (P00761 whole entry): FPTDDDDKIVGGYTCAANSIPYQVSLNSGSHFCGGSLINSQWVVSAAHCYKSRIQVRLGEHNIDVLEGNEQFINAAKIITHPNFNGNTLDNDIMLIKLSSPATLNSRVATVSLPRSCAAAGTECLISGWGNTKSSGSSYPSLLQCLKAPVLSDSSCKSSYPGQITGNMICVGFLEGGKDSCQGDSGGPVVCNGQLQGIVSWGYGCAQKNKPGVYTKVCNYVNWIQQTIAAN

[3] = test system: INS1; assay: INS-1E survival protection against cytokine death – cell-based, luminescence, retest, dose response (AID 449756); type: functional; details: Rattus norvegicus;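 note: cell death triggered by IL-1 beta plus TNF-alpha plus IFN-gamma mixture; protective hits raise ATP signal compared with cytokine alone wells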
[4] = molecular target: Melanin-concentrating hormone receptor 1 (Homo sapiens, UniProt Q99705); assay: Late-stage fluorescence-based counterscreen for antagonists of the G-protein coupled receptor 7 (GPR7): cell-based dose response assay to identify antagonists of the melanin-concentrating hormone receptor 1 (MCHR1). [Related pubchem assays (depositor defined):AID1861, AID1880, AID1952, AID2148, AID2251, AID2257, AID485339]; type: functional;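 note: stimulated with 30 nM MCH peptide agonist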
Chain of Melanin-concentrating hormone receptor 1 (Q99705 whole entry): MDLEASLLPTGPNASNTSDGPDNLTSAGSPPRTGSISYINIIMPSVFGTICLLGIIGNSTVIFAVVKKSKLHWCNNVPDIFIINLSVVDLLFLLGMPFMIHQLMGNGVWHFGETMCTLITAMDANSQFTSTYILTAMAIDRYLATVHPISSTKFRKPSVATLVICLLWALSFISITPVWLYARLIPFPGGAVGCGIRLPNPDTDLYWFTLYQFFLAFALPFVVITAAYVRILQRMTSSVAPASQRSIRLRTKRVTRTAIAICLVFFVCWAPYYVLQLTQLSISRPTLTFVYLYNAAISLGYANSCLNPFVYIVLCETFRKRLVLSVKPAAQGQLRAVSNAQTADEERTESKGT

[5] = HIV-1 Vif–A3G interaction blockers – biochemical, TR-FRET, GST-Vif 1-94, biotin-A3G peptide, dose response retest, primary screen (AID 1117319); type: functional;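 note: TR-FRET signal of purified GST-Vif binding a biotinylated A3G peptide; inhibitors lower the FRET signal by blocking Vif and A3G binding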
[6] = molecular target: T2, Corticotropin-releasing factor receptor 2/Corticotropin-releasing factor-binding protein (Homo sapiens, UniProt P24387+Q13324); assay: activators of CRF receptor 2 with binding protein – uHTS hits, confirmation (AID 602473); type: functional; details: read-out: EC50_Mean
T2 sequence (Q13324 whole entry): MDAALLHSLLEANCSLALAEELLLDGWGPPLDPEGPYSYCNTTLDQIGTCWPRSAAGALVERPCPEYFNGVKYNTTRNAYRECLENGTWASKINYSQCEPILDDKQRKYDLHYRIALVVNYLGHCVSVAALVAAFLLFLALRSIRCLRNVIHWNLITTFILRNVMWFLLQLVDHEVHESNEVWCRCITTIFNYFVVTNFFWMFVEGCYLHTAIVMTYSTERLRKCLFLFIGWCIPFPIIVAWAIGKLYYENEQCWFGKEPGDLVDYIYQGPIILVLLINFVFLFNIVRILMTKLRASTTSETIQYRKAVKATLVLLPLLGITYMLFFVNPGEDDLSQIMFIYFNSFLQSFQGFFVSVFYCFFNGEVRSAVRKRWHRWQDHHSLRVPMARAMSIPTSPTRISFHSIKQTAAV
T2 sequence (P24387 whole entry): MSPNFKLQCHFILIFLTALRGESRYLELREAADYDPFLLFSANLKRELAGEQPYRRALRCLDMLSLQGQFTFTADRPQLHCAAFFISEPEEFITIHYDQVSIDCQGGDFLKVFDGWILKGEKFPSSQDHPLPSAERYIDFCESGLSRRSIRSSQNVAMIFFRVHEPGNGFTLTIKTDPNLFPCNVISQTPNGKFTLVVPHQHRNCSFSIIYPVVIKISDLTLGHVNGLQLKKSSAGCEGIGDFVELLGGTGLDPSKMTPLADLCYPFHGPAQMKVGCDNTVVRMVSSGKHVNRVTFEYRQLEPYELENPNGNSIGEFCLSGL

[7] = HEK-293T cell viability reduction – luminescence, B-cell screen hits, cytotoxicity control for BCR NF-kB inhibitor project, dose response (AID 489021); type: functional, cell-based;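 note: HEK-293T cells carrying an NF-kB luciferase reporter; cells exposed to compound for about 14 hours before viability readout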
[8] = molecular target: T2, Corticotropin-releasing factor receptor 2/Corticotropin-releasing factor-binding protein; assay: Dose Response confirmation of uHTS hits for small molecule antagonists of the CRF-binding protein and CRF-R2 receptor complex.; type: functional; details: read-out: IC50_Mean
[9] = molecular target: T3, Carboxy-terminal domain RNA polymerase II polypeptide A small phosphatase 1 (Homo sapiens, UniProt Q9GZU7); assay: CTDSP1 inhibitors, concentration-response, biochemical, absorbance readout, ultra-high-throughput screen actives (AID 540297); type: functional
T3 sequence (Q9GZU7 whole entry): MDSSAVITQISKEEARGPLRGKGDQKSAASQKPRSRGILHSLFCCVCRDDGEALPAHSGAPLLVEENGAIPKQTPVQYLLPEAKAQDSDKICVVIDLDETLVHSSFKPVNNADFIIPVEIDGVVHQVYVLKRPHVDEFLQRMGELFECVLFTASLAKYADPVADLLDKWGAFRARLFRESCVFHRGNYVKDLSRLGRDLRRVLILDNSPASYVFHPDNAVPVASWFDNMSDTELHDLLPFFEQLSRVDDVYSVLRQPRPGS

[10] = molecular target: T4, ORF 73 (Human herpesvirus 8, UniProt O40947); assay: KSHV LANA DNA-binding disruption – biochemical, fluorescence polarization, cherry-picked samples, dose response (AID 504725); parameters: species or system Human gammaherpesvirus 8;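 note: fluorescence polarization of a labeled DNA duplex reporting LANA DNA binding; potency is for inhibitors that block LANA binding to the DNA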
T4 sequence (O40947 whole entry): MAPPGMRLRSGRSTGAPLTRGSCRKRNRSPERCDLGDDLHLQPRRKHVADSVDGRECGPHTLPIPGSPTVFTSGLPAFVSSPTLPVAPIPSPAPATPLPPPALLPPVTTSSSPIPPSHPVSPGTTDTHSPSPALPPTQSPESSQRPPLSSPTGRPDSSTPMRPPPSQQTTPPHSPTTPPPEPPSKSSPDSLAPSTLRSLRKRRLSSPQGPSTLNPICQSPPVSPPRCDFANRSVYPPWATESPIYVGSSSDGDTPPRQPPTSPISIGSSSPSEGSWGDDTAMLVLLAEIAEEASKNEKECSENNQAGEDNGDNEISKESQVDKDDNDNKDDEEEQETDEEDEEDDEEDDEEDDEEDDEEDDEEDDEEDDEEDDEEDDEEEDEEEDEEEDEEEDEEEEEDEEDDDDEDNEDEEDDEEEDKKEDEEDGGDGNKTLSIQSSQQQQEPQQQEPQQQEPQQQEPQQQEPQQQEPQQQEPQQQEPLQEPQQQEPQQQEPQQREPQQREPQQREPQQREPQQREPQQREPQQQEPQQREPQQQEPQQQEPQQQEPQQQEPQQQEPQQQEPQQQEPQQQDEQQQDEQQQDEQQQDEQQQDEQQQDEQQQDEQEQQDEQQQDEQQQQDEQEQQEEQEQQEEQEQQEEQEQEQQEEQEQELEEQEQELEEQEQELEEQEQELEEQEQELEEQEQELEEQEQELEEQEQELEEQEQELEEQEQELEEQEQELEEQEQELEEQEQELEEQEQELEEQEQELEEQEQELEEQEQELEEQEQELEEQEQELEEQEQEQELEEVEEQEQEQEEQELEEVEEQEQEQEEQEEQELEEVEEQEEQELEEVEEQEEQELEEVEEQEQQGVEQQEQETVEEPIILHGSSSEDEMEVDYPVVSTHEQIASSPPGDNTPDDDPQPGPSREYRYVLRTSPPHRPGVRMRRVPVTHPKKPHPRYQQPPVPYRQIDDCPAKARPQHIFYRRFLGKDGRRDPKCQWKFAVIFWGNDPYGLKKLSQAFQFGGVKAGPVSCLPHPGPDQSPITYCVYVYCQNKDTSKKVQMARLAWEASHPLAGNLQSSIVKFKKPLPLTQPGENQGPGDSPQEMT

[11] = molecular target: Genome polyprotein (dengue virus type 2, UniProt P29990); assay: flavivirus cap methylation enzyme inhibition – biochemical, confirmation dose response, primary screen (AID 588689); type: functional
Chain of Genome polyprotein (P29990 2492-3391 limits assumed): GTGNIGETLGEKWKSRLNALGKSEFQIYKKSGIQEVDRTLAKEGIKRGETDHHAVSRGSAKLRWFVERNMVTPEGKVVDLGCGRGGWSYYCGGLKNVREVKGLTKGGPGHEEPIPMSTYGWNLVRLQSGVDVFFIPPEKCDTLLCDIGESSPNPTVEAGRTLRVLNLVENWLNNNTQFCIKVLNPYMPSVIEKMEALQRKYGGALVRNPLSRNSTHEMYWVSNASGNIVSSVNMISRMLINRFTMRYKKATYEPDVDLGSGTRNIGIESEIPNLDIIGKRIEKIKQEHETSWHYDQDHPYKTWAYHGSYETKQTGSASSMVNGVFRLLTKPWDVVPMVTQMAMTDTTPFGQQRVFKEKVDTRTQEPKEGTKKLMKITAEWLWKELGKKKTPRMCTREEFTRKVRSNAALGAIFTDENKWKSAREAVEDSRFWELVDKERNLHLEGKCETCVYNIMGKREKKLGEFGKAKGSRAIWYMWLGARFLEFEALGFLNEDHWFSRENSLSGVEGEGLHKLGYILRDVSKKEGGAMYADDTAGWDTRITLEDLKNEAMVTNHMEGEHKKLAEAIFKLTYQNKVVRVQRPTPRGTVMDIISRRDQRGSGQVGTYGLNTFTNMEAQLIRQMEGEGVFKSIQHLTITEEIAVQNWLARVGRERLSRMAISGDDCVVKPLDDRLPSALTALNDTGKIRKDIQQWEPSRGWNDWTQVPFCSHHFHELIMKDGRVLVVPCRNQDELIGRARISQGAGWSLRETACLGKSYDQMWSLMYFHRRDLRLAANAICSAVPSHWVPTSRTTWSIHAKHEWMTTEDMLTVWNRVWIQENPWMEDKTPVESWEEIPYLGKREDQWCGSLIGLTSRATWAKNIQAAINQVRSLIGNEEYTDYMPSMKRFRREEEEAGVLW

[12] = test system: HeLa; assay: viability loss in HeLa cells – cell-based, 24 h, cherry-picked samples, cytotoxicity control, dose response (AID 504726); type: functional; details: Homo sapiens;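 note: potency for cytotoxicity as loss of luminescence signal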
[13] = molecular target: Nonstructural protein 1 (Influenza A virus, UniProt Q194T2); type: functional, Influenza A virus (A/California/07/2009(H1N1))
Chain of Nonstructural protein 1 (Q194T2 whole entry): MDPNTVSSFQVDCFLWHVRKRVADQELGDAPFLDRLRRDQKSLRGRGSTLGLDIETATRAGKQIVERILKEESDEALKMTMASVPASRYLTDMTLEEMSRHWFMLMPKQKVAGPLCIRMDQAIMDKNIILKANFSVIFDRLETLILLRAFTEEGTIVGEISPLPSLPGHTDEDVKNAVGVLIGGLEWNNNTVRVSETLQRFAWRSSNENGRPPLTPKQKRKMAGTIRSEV

[14] = molecular target: Caspase-6 (Homo sapiens, UniProt P55212); assay: inhibition of CASP6 peptide cleavage – biochemical, VEID-R110 fluorescence, cherry-pick, dose response (AID 720632)
Chain of Caspase-6 (P55212 24-179 limits assumed): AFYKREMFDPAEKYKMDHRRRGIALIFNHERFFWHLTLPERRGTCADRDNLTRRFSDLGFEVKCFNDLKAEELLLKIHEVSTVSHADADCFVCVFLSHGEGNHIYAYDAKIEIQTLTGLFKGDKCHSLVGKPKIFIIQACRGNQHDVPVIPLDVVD
Chain of Caspase-6 (P55212 194-293 limits assumed): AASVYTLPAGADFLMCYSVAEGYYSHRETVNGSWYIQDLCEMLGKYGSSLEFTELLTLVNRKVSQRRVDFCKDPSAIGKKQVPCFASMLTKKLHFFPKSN

Question: For `COc1ccc(-c2c[n+]3c4n2CCCCC4=C(c2ccc(Br)cc2)C3)cc1`, which AC50 [1] is on record?
Answer: 1.87 µM (active)

Question: What about the AC50 [2] of the same molecule?
Answer: 3.58 µM (active)

Question: And the AC50 [3]?
Answer: 2.88 µM (active)

Question: For `CCOc1ccc(Oc2c(Cl)cnn(-c3ccc(C)cc3)c2=O)cc1`, which IC50 [4] is on record?
Answer: 11 µM (inactive)

Question: Which results are given for `COc1ccc(OC)c(NC(=O)c2[nH]c(C)c(C(C)=O)c2C)c1`?
Answer: IC50 [5]: > 100 µM (active); EC50 [6]: > 53 µM (inactive); IC50 [7]: > 80 µM (inactive); IC50 [8]: > 47.1 µM (inactive)

Question: With `O=C(O)Cc1ccc(N=Nc2c(O)c(C(=O)O)cc3ccccc23)cc1` as the molecule, how does the IC50 [9] read?
Answer: 3.6 µM (active)

Question: And the AC50 [10]?
Answer: 33.6 µM (active)

Question: What about the IC50 [11] of the same molecule?
Answer: 68.1 µM (active)

Question: And the AC50 [12]?
Answer: 303 µM (active)

Question: What about the IC50 [13] of the same molecule?
Answer: 46 µM (active)

Question: What about the AC50 [14] of the same molecule?
Answer: 7.16 µM (active)
